In patent US12528767B2, “HDAC6 inhibitors and uses thereof” (Eikonizo Therapeutics, Inc., priority 2019, dated 2026):

Tests used:
Full length Human HDAC5 = Full length Human HDAC5 (Homo sapiens, UniProt Q9UQL6)
Full length Human HDAC1 = Full length Human HDAC1 (Homo sapiens, UniProt Q13547)
[1] = molecular target: Human HDAC4 aa 101-1084(end) (Homo sapiens, UniProt P56524)
[2] = tested on: histone H3 acetylation (acH3K9) in undifferentiated SH-SY5Y cells; assay: Histone H3 acetylation in cells (Western immunoblot); type: cell-based; details: Homo sapiens, 4 hours, acetyl histone H3K9/histone H3 ratio
Experimental: (§1) Compound EC50 Determination for Tubulin- and Histone H3 Acetylation in Cells
(§2) Estimation of the EC50 for exemplary compounds to alter target protein acetylation in undifferentiated SH-SY5Y cells was performed using standard Western immunoblotting methods. […] SH-SY5Y cells were grown to 90% confluency on sterile cell growth plates. 10 mM compound stocks prepared in DMSO and two-fold serial dilutions were prepared from the stock and applied to cells to achieve a 12-point concentration range in cell media from an upper limit of 10 μM to a lower limit of DMSO [zero compound].
(§3) Cells were incubated under normal growth conditions (37° C., 5% CO2) in the presence of compound for 4 hours, then media was aspirated and cells were rinsed two times with 1×DPBS with calcium and magnesium warmed to 37° C. Cells were frozen directly on the plates on a bed of dry ice for 5 min, then stored at −80° C. until protein extraction.
(§4) Protein extraction was performed in RIPA buffer (50 mM Tris-HCL pH 8.0, 150 mM NaCl, 0.5% sodium deoxycholate, 0.1% sodium dodecyl sulfate, 1% NP-40) supplemented with Pierce protease inhibitor mini tables (Thermofisher cat #A32953) exactly as described by the manufacturer. After thawing the plate on a bed of wet ice for 10 minutes, lysis buffer was added to each well (e.g. 100 μL per well of a 24-well plate) and cells scraped from the bottom of each well. Lysates were then sonicated over ice (40% power, 30 pulses of 1 second on, 2 seconds off), centrifuged at 16,000 g for 10 min at 4° C., and the clarified supernatant saved. Protein concentration was determined by BCA assay and at least 3 μg prepared per lane by combining lysate supernatant aliquot with 1/3 total volume of 3× gel loading buffer containing DTT (NEB Cat. #B7703S), heating for 5 minutes at 95° C., briefly centrifuging and then loading on an SDS-PAGE gel.
(§5) Proteins were resolved on a 4-20% Tris-Glycine gel and transferred to PVDF membrane using an iBlot2 dry transfer system. The membrane was then blocked for at least 30 minutes at room temperature in TBST containing 5% milk or 5% bovine serum albumin, then incubated overnight at 4° C. with a single primary antibody from the following table:
(§6) Following primary antibody incubation, membranes were washed, incubated in secondary antibody, washed and incubated in ECL prime western blotting detection reagent (Amersham #RPN223) with membrane exposure and ECL signal capture in a LI-COR Odyssey Imaging system. […] Subsequent densitometry of immunoreactive bands was performed using the ImageStudio software and Microsoft Excel resulting in the following ratios: acetylTubulin/Tubulin and acetyl histone H3K9/histone H3. Raw ratios were uploaded to GraphPad Prism v7.0 with EC50 values modeled using the variable slope equation for log-transformed data [log(agonist) vs response in Prism].

[3] = tested on: tubulin acetylation (acTubK40) in undifferentiated SH-SY5Y cells; assay: Tubulin acetylation in cells (Western immunoblot); type: cell-based; details: Homo sapiens, 4 hours, acetylTubulin/Tubulin ratio
Experimental: as §1, §2, §3, §4, §5, §6

Full length Human HDAC2 = Full length Human HDAC2 (Homo sapiens, UniProt Q92769)
Full length Human HDAC11 = molecular target: T1, Full length Human HDAC11 (Homo sapiens, UniProt Q96DB2)
T1 sequence (Q96DB2 1-347): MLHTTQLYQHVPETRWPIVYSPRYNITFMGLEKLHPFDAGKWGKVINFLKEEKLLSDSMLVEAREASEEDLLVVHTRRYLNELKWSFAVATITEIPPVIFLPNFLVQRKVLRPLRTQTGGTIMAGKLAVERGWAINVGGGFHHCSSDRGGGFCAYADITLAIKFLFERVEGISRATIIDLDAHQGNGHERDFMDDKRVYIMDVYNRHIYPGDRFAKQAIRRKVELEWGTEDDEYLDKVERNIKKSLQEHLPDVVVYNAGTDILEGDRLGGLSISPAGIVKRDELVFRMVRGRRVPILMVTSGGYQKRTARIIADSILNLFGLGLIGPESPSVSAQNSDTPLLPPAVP

[4] = molecular target: Human HDAC9 a.a. 604-1066 (Homo sapiens, UniProt Q9UKV0)
[5] = molecular target: Full length Human HDAC3 co-expressed with Human NCOR2 (Homo sapiens, UniProt O15379)
Chain of Full length Human HDAC3 co-expressed with Human NCOR2 (O15379 whole entry): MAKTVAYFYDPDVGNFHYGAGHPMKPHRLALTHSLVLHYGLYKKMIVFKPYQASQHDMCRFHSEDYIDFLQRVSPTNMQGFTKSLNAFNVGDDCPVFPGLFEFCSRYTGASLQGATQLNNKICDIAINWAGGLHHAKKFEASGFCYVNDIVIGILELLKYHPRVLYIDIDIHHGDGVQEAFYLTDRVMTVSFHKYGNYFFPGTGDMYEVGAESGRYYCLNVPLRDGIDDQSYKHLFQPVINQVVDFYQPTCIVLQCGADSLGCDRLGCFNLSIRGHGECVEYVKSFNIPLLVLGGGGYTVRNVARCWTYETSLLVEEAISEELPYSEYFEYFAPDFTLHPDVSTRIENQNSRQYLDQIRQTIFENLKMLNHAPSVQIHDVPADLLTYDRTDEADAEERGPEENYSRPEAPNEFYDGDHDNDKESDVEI
Chain of Full length Human HDAC3 co-expressed with Human NCOR2 (Q9Y618 395-489 partner limits assumed): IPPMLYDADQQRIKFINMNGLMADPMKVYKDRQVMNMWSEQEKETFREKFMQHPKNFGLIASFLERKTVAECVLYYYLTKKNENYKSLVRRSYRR

Chain of Human HDAC4 aa 101-1084(end) (P56524 101-1084): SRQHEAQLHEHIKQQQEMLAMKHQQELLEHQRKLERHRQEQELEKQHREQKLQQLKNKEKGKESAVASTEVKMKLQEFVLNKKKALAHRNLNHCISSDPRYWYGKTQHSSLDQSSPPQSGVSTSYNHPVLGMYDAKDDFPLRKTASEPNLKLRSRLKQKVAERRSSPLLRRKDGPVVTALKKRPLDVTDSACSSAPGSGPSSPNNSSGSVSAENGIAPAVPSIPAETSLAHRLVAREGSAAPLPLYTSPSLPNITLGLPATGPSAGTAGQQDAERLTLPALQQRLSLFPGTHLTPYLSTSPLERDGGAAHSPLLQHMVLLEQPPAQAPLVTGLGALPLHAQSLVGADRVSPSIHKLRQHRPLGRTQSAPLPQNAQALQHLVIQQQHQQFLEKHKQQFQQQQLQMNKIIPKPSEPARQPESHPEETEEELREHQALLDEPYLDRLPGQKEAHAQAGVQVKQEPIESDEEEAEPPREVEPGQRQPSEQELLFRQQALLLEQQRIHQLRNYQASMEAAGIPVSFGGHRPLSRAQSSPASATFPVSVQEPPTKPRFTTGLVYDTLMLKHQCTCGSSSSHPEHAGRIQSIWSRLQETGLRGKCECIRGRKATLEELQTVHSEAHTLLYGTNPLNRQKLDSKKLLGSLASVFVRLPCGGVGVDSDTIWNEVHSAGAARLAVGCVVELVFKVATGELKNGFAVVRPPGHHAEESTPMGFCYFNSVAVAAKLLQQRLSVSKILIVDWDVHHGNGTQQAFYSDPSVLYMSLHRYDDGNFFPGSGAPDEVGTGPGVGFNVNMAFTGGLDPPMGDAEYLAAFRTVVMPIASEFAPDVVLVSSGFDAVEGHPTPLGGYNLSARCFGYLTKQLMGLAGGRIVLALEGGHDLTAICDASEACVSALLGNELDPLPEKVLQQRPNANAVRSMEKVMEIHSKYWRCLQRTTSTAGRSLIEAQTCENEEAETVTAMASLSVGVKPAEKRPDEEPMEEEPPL
Chain of Full length Human HDAC1 (Q13547 whole entry, the tested form may be a part): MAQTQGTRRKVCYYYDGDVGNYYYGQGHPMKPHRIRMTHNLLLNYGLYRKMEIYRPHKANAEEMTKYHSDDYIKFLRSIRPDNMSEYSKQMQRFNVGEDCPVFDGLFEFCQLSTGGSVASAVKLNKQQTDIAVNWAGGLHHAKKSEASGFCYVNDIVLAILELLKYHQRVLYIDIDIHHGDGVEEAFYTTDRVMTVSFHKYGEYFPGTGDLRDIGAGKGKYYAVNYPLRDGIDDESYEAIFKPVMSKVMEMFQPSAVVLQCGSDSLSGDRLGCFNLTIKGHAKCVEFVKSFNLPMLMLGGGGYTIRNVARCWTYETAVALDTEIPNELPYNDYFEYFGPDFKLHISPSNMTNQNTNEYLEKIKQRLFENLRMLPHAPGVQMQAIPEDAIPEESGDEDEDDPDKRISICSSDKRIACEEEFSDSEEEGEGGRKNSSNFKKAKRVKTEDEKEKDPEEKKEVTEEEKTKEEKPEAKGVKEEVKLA
Chain of Human HDAC9 a.a. 604-1066 (Q9UKV0 604-1066 isoform Q9UKV0-5): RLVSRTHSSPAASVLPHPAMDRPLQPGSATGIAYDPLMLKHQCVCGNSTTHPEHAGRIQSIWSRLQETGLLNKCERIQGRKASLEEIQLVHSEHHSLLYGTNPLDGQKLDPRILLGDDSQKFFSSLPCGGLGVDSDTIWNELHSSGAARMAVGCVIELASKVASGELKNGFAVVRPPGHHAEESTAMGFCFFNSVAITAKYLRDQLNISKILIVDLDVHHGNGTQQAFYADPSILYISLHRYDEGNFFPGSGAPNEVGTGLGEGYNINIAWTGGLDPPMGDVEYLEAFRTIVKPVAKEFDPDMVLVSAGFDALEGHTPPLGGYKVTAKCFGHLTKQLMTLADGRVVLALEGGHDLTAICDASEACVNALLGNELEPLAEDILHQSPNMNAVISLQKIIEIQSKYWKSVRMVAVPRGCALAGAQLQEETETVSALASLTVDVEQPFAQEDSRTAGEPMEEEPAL
Chain of Full length Human HDAC2 (Q92769 whole entry): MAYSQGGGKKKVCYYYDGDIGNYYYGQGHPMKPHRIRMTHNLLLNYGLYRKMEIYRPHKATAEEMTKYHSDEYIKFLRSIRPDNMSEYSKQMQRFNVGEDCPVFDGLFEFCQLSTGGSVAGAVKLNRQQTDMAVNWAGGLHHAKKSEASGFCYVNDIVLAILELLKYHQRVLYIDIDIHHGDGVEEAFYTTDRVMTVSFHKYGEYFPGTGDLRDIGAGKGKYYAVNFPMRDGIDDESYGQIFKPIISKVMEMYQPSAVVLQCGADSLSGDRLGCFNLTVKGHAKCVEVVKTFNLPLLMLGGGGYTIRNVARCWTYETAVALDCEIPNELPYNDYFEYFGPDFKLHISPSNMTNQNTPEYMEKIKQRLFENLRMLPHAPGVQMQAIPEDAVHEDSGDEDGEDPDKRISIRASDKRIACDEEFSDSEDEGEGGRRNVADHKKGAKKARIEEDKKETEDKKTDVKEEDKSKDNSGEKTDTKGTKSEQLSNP
Chain of Full length Human HDAC5 (Q9UQL6 whole entry): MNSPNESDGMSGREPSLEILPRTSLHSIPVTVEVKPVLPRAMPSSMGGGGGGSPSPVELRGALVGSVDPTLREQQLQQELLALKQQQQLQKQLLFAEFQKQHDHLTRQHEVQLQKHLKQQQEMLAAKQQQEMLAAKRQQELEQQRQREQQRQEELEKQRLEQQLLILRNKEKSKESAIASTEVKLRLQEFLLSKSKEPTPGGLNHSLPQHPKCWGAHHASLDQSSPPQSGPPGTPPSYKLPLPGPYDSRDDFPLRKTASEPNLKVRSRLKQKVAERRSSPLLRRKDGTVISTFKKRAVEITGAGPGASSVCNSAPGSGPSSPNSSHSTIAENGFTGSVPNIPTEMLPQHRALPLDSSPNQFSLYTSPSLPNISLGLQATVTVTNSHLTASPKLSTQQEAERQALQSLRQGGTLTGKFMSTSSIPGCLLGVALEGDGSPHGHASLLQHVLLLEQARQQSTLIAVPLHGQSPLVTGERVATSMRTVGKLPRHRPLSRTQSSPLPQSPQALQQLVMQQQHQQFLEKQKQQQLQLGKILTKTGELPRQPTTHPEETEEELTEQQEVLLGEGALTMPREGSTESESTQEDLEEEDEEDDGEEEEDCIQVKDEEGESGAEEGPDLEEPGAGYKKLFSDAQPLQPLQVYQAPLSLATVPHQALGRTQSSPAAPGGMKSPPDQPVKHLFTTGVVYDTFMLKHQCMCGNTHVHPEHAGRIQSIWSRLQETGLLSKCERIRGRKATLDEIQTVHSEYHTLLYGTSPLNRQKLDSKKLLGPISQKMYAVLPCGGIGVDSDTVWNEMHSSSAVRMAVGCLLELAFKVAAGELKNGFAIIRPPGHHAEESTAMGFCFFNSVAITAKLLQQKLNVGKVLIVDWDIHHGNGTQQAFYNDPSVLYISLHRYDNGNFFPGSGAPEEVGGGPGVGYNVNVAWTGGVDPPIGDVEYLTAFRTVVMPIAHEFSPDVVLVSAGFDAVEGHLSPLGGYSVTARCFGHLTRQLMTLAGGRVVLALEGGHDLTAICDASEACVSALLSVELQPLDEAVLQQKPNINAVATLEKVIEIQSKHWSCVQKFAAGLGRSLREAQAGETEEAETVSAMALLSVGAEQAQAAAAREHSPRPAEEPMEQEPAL

SMILES | IC50 (Full length Human HDAC5) | IC50 (Full length Human HDAC1) | IC50 [1] | EC50 [2] | EC50 [3] | IC50 (Full length Human HDAC2) | IC50 (Full length Human HDAC11) | IC50 [4] | IC50 [5]
O=C(NO)c1cc(F)c2c(c1)CCN(C1CC3(CCCCC3)C1)C2 [compound 16] | > 100 µM | 10 to 100 µM | 10 to 100 µM | > 10 µM | 2.9 µM | 10 to 100 µM | 1 to 10 µM | > 100 µM | 10 to 100 µM
O=C(NO)c1cc(F)c2c(c1)CCN(Cc1ccccc1)C2 [compound 32] |  |  |  | > 10 µM | 0.3 µM |  |  |  | 
O=C(NO)c1ccc(CN2CCC3(CCCCC3)C2)c(F)c1 [compound 75, 4-((2-Azaspiro[4.5]decan-2-yl)methyl)-3-fluoro-N-hydroxybenzamide] |  |  |  | > 10 µM | 1.4 µM |  |  |  | 
O=C(NO)c1ccc2c(c1)CN1CCCCN1C2 [compound 106, N-hydroxy-1,2,3,4,6,11-hexahydropyridazino[1,2-b]phthalazine-8-carboxamide] | > 100 µM | 10 to 100 µM | 10 to 100 µM |  |  | 10 to 100 µM | 10 to 100 µM | 10 to 100 µM | 1 to 10 µM
O=C(NO)c1cc(F)c2c(c1)CCN1CCC[C@@H]21 (single isomer, unassigned) [compound 79] | 1 to 10 µM | 1 to 10 µM | 1 to 10 µM | > 10 µM | 0.44 µM | 10 to 100 µM | > 100 µM | 0.1 to 1 µM | 1 to 10 µM

Other lines, results leading:

IC50 (Full length Human HDAC5) | IC50 (Full length Human HDAC1) | IC50 [1] | EC50 [2] | EC50 [3] | IC50 (Full length Human HDAC2) | IC50 (Full length Human HDAC11) | IC50 [4] | IC50 [5] | SMILES
10 to 100 µM | 10 to 100 µM | 10 to 100 µM | > 10 µM | 2.1 µM | 10 to 100 µM | 1 to 10 µM | 10 to 100 µM | 1 to 10 µM | O=C(NO)c1cc(F)c2c(c1)CCN(CC13CC4CC(CC(C4)C1)C3)C2 [compound 34]
10 to 100 µM | 10 to 100 µM | 1 to 10 µM |  |  | 10 to 100 µM | 10 to 100 µM | 1 to 10 µM | 1 to 10 µM | O=C(NO)c1ccc(CN2C[C@H]3CC[C@@H]2CO3)c(F)c1 (single isomer, unassigned) [compound 173]
10 to 100 µM | > 100 µM | 10 to 100 µM |  |  | > 100 µM | > 100 µM | 1 to 10 µM | 10 to 100 µM | O=C(NO)c1cc(F)c2c(c1)C[C@H]1CCCCN1C2 (single isomer, unassigned) [compound 94]
1 to 10 µM | 1 to 10 µM | 1 to 10 µM | > 10 µM | 0.2 µM | 10 to 100 µM | 10 to 100 µM | 0.1 to 1 µM | 1 to 10 µM | O=C(NO)c1ccc(CN2CC3CCC(C2)O3)c(F)c1 [compound 53]
10 to 100 µM | > 100 µM | 10 to 100 µM |  |  | > 100 µM | 0.001 to 0.1 µM | 10 to 100 µM | 10 to 100 µM | O=C(NO)c1ccc(CN2C[C@@H]3CC[C@H]2CO3)c(F)c1 (single isomer, unassigned) [compound 172]
1 to 10 µM | 10 to 100 µM | 1 to 10 µM | 2.5 µM | 2.6 µM | 10 to 100 µM | > 100 µM | 1 to 10 µM | 1 to 10 µM | O=C(NO)c1ccc(CN2CC3CCC2CO3)c(F)c1 (stereo not drawn) [compound 58]
1 to 10 µM | 10 to 100 µM | 1 to 10 µM |  |  | 10 to 100 µM | 1 to 10 µM | 1 to 10 µM | 1 to 10 µM | O=C(NO)c1cc(F)c2c(c1)C[C@@H]1CCCCN1C2 (single isomer, unassigned) [compound 93]
